How the values were obtained:
S phase cells = test: BRDU/EDU injection labelling of S phase cells in living animals; assay type: in vivo, mouse
Source text: It has been estimated in the literature that the cell cycle would be between 12 hr and 2 days in the crypt cells of the gut. These are the cells that are constantly dividing and give rise to mature gut cells forming the lining of the intestinal tract. […] Both EDU and BRDU are incorporated only into DNA of cells actively synthesizing DNA, S phase cells. Both are rapidly removed from circulation if not incorporated into DNA, so that a cell containing EDU or BRDU in its DNA would have been in S phase at the time of injection, or shortly thereafter. Indeed, an injection of either marker is effectively a 1 hr pulse with that marker. BRDU is identified with an antibody stain, while EDU is identified by a separate chemical stain. Different fluorochromes are used to identify the two stains, so that cells which incorporated either, or both, can readily be identified. With the use of our image analysis approach, the labeling with each fluorochrome can be accurately quantitated.
Thus, with EDU and BRDU, it was possible to determine which cells had been in S phase at two different times. BRDU was normally injected intraperitoneally (IP) into animals at time zero. […] 40 minutes following the EDU injection the animals were euthanized and tissues collected, imbedded in paraffin, and stained. It was possible to tell which cells had been in S phase at the beginning of the experiment from the BRDU stain. […]

crypt cells = test: Proof of principle: two EDU injections in mice given BRDU in drinking water; assay type: in vivo, mouse
Protocol: The experiment to validate this procedure was designed as follows: Mice were given BRDU in their drinking water at the beginning of the experiments. This constant supply of BRDU would label all proliferative cells over the length of the experiment. 4 hr after BRDU-containing drinking water was given to the animals, two injections of EDU were given. These injections were spaced 5, 8, 11, 14, 17, and 20 hr apart in separate animals. At 40 min following the final injection tissue was collected, fixed, imbedded, stained, and analyzed as described above. The goal was to determine how many cells were labeled with BRDU and NOT WITH EDU. EDU in this experiment represents the toxic treatment. Any cell labelled with EDU would be expected to be killed by the appropriate S phase specific toxin. The surviving cells would, therefore, be identified by BRDU positive, EDU negative cells. As with many proof of principle experiments, this one has a drawback that must be considered. BRDU remains present in cells that differentiate and move up the villi towards the lumen of the gut. Cells on the verge of terminal differentiation would be labelled with BRDU but cease dividing prior to the administration of EDU. This would result in an over-estimate of the number of BRDU+ and EDU− cells (those that survive the treatments), particularly at later times in the analysis. […]

Structure (SMILES) | effective pulse length of the marker after one injection (S phase cells; mouse, in vivo) | BRDU positive cells remaining unlabeled with EDU (cells proposed to survive treatment) (crypt cells; two EDU injections spaced 14 hr apart) | level of BRDU+ and EDU- cells (cells proposed to survive treatment) (crypt cells; two EDU injections spaced 17 hr apart, may be overestimated) | effective pulse length of the marker after one injection (S phase cells; rapidly removed from circulation if not incorporated into DNA)
O=c1[nH]c(=O)n([C@H]2C[C@H](O)[C@@H](CO)O2)cc1Br [BRDU, bromodeoxyuridine] | 1 h | – | – | –
C#Cc1cn([C@H]2C[C@H](O)[C@@H](CO)O2)c(=O)[nH]c1=O [EDU, 5-ethynyl-2′-deoxyuridine] | – | ~40% | remain high | 1 h
